Consider 33 compounds from US20140221354A1, “IMIDAZO [1,2-a]PYRIDINE COMPOUNDS FOR USE IN THERAPY” (EMBLEM Technology Transfer GmbH, priority 2011, published 2014).

pEC50: −log10 of the molar value.

The experiment has as its system CellSensor® HRE-bla HCT-116 stably transfected reporter cell line. Nature of the experiment: HIF/HRE reporter assay. It is filed as cell-based. The following applies: Homo sapiens, inhibition of activated HIF signaling response, hypoxic conditions induced with deferoxamine (DFO), 24 h incubation, blue/green emission ratio, read-out: Evaluation. As to the method: Inhibition of an activated HIF signaling response under chemically-induced hypoxic conditions due to compound treatment was determined using the CellSensor® HRE-bla HCT-116 stably transfected reporter cell line from Invitrogen according to the manufacturer's instructions.
Cells were maintained as described previously and seeded into 384-well, clear-bottom plates (Corning 3712) at 15000 cells/well in 32 μl assay medium (Opti-MEM [Invitrogen], 0.5% FBS, 100 U/ml penicillin, 100 μg/ml streptomycin, 0.1 mM non-essential amino acids [NEAA], 1 mM sodium pyruvate, 5 mM HEPES [pH 7.3]). Following a 2 h incubation period, compounds (4 μl) were subsequently added to the cells at 10× concentrations in 5% DMSO and incubated under normal conditions for 30 min. To induce hypoxic conditions, 4 μl of a 2 mM deferoxamine (DFO) solution was added to the cells followed by 24 h incubation under standard assay conditions (as described). Control wells included wells containing only medium (no cells) and wells treated with 0.5% DMSO instead of compound.
Prior to the readout, the Substrate Loading Solution was prepared as described in the manufacturer's protocol and 10 μl added to each well. Following a further 2 h incubation period at room temperature and in the dark, fluorescence was measured at two wavelengths (blue channel: ex. 409 nm, em. 460 nm; green channel: ex. 409 nm, em. 530 nm) on a PerkinElmer Envision HTS. For the analysis, the average signal of the cell-free wells at 460 nm and 530 nm was first subtracted from the blue and green channel data, respectively. The blue/green emission ratios were then calculated for each well, dividing the background-corrected blue emission values by the background-corrected green emission values. […] values were determined from these ratios using GraphPad Prism (Prism 5, GraphPad software, Inc.).

As to `N#Cc1csc(-c2nc3ccc(-c4ccccc4)cn3c2CN2CCCNCC2)c1` [Example 20, 5-(3-((1,4-diazepan-1-yl)methyl)-6-phenylimidazo[1,2-a]pyridin-2-yl)thiophene-3-carbonitrile], the pEC50 is more than 6.30.

For the compound `Clc1ccc(-c2nc3ccc(-c4ccccc4)cn3c2CN2CCCNCC2)cc1` [Example 14, 3-((1,4-diazepan-1-yl)methyl)-2-(4-chlorophenyl)-6-phenylimidazo[1,2-a]pyridine], the pEC50 is more than 6.30.

On to `Cc1cc(-c2ccc3nc(-c4ccc(C#N)cc4)c(CN4CCCNCC4)n3c2)ccn1` [Example 28, 4-(3-((1,4-diazepan-1-yl)methyl)-6-(2-methylpyridin-4-yl)imidazo[1,2-a]pyridin-2-yl)benzonitrile], for which the pEC50 was 6.00 to 6.30.

`CCCN1CCN(Cc2c(-c3ccc([N+](=O)[O-])cc3)nc3ccc(-c4ccccc4)cn23)CC1` [Example 5, 2-(4-nitrophenyl)-6-phenyl-3-((4-propylpiperazin-1-yl)methyl)imidazo[1,2-a]pyridine]: the pEC50 was 6.00 to 6.30.

Regarding `CN1CCCN(Cc2c(-c3ccc(C#N)s3)nc3ccc(-c4ccccc4)cn23)CC1` [Example 36, 5-(3-((4-methyl-1,4-diazepan-1-yl)methyl)-6-phenylimidazo[1,2-a]pyridin-2-yl)thiophene-2-carbonitrile], the pEC50 was more than 6.30.

Take `N#Cc1ccc(-c2nc3ccc(-c4ccccc4)cn3c2CN2CCCNCC2)cn1` [Example 16, 5-(3-((1,4-diazepan-1-yl)methyl)-6-phenylimidazo[1,2-a]pyridin-2-yl)picolinonitrile]: the pEC50 is 6.00 to 6.30.

With `N#Cc1ccc(-c2nc3ccc(-c4ccccc4)cn3c2CN2CCNC(=O)C2)cc1` [Example 33, 4-(3-((3-oxopiperazin-1-yl)methyl)-6-phenylimidazo[1,2-a]pyridin-2-yl)benzonitrile], the pEC50 is less than 6.00.

For `CC(=O)N1CCN(Cc2c(-c3ccc([N+](=O)[O-])cc3)nc3ccc(-c4ccccc4)cn23)CC1` [Example 3, 1-(4-((2-(4-nitrophenyl)-6-phenylimidazo[1,2-a]pyridin-3-yl)methyl)piperazin-1-yl)ethanone], the pEC50 was 6.00 to 6.30.

For `NC(=O)c1ccc(-c2nc3ccc(-c4ccccc4)cn3c2CN2CCCNCC2)cc1` [Example 10, 4-(3-((1,4-diazepan-1-yl)methyl)-6-phenylimidazo[1,2-a]pyridin-2-yl)benzamide], the pEC50 was less than 6.00.

Consider `N#Cc1cccc(-c2nc3ccc(-c4ccccc4)cn3c2CN2CCCNCC2)c1` [Example 22, 3-(3-((1,4-diazepan-1-yl)methyl)-6-phenylimidazo[1,2-a]pyridin-2-yl)benzonitrile], for which the pEC50 was more than 6.30.

`Cc1ccccc1-c1ccc2nc(-c3ccc(C#N)cc3)c(CN3CCCNCC3)n2c1` [Example 25, 4-(3-((1,4-diazepan-1-yl)methyl)-6-(o-tolyl)imidazo[1,2-a]pyridin-2-yl)benzonitrile]: the pEC50 is more than 6.30.

For the compound `N#Cc1ccc(-c2nc3ccc(-c4cn[nH]c4)cn3c2CN2CCCNCC2)cc1` [Example 37, 4-(3-((1,4-diazepan-1-yl)methyl)-6-(1H-pyrazol-4-yl)imidazo[1,2-a]pyridin-2-yl)benzonitrile], the pEC50 is less than 6.00.

With `N#Cc1ccc(-c2nc3ccc(-c4ccsc4)cn3c2CN2CCCNCC2)cc1` [Example 44, 4-(3-((1,4-diazepan-1-yl)methyl)-6-(thiophen-3-yl)imidazo[1,2-a]pyridin-2-yl)benzonitrile], the pEC50 was more than 6.30.

With `c1ccc(-c2ccc3nc(-c4ccncc4)c(CN4CCCNCC4)n3c2)cc1` [Example 11, 3-((1,4-diazepan-1-yl)methyl)-6-phenyl-2-(pyridin-4-yl)imidazo[1,2-a]pyridine], the pEC50 was more than 6.30.

With `CC(=O)N1CCN(Cc2c(-c3cccc([N+](=O)[O-])c3)nc3ccc(-c4ccccc4)cn23)CC1` [Example 2, 1-(4-((2-(3-nitrophenyl)-6-phenylimidazo[1,2-a]pyridin-3-yl)methyl)piperazin-1-yl)ethanone], the pEC50 was less than 6.00.

For `N#Cc1ccc(-c2nc3ccc(-c4ccncc4)cn3c2CN2CCCNCC2)cc1` [Example 27, 4-(3-((1,4-diazepan-1-yl)methyl)-6-(pyridin-4-yl)imidazo[1,2-a]pyridin-2-yl)benzonitrile], the pEC50 was more than 6.30.

Take `c1ccc(-c2ccc3nc(-c4cccnc4)c(CN4CCCNCC4)n3c2)cc1` [Example 15, 3-((1,4-diazepan-1-yl)methyl)-6-phenyl-2-(pyridin-3-yl)imidazo[1,2-a]pyridine]: the pEC50 is more than 6.30.

On to `Cc1ccc(-c2nc3ccc(-c4ccccc4)cn3c2CN2CCCNCC2)cc1` [Example 17, 3-((1,4-diazepan-1-yl)methyl)-6-phenyl-2-(p-tolyl)imidazo[1,2-a]pyridine], for which the pEC50 is more than 6.30.

`CN1CCCN(Cc2c(-c3ccc([N+](=O)[O-])cc3)nc3ccc(-c4ccccc4)cn23)CC1` [Example 12, 3-((4-methyl-1,4-diazepan-1-yl)methyl)-2-(4-nitrophenyl)-6-phenylimidazo[1,2-a]pyridine]: the pEC50 was more than 6.30.

As to `O=C1CN(Cc2c(-c3ccc([N+](=O)[O-])cc3)nc3ccc(-c4ccccc4)cn23)CCN1` [Example 13, 4-((2-(4-nitrophenyl)-6-phenylimidazo[1,2-a]pyridin-3-yl)methyl)piperazin-2-one], the pEC50 is more than 6.30.

As to `O=[N+]([O-])c1ccc(-c2nc3ccc(-c4ccccc4)cn3c2CN2CCNCC2)cc1` [Example 1, 2-(4-nitrophenyl)-6-phenyl-3-(piperazin-1-ylmethyl)imidazo[1,2-a]pyridine], the pEC50 was more than 6.30.

Regarding `COc1ccc(-c2nc3ccc(-c4ccccc4)cn3c2CN2CCCNCC2)cc1` [Example 18, 3-((1,4-diazepan-1-yl)methyl)-2-(4-methoxyphenyl)-6-phenylimidazo[1,2-a]pyridine], the pEC50 was more than 6.30.

As to `COc1ccc(-c2ccc3nc(-c4ccc(C#N)cc4)c(CN4CCCNCC4)n3c2)cc1` [Example 41, 4-(3-((1,4-diazepan-1-yl)methyl)-6-(4-methoxyphenyl)imidazo[1,2-a]pyridin-2-yl)benzonitrile], the pEC50 is more than 6.30.

`N#Cc1ccc(-c2nc3ccc(-c4ccc(C(N)=O)cc4)cn3c2CN2CCCNCC2)cc1` [Example 42, 4-(3-((1,4-diazepan-1-yl)methyl)-2-(4-cyanophenyl)imidazo[1,2-a]pyridin-6-yl)benzamide]: the pEC50 is less than 6.00.

As for `O=[N+]([O-])c1ccc(-c2nc3ccc(-c4ccccc4)cn3c2CN2CCCNCC2)cc1` [Example 4, 3-((1,4-diazepan-1-yl)methyl)-2-(4-nitrophenyl)-6-phenylimidazo[1,2-a]pyridine], the pEC50 was more than 6.30.

Consider `CN1CCN(Cc2c(-c3ccc([N+](=O)[O-])cc3)nc3ccc(-c4ccccc4)cn23)CC1` [Example 7, 3-((4-methylpiperazin-1-yl)methyl)-2-(4-nitrophenyl)-6-phenylimidazo[1,2-a]pyridine], for which the pEC50 was more than 6.30.

Regarding `c1ccc(-c2ccc3nc(-c4ccccc4)c(CN4CCCNCC4)n3c2)cc1` [Example 19, 3-((1,4-diazepan-1-yl)methyl)-2,6-diphenylimidazo[1,2-a]pyridine], the pEC50 was 6.00 to 6.30.

For the compound `N#Cc1ccc(-c2ccc3nc(-c4ccc(C#N)cc4)c(CN4CCCNCC4)n3c2)cc1` [Example 43, 4,4′-(3-((1,4-diazepan-1-yl)methyl)imidazo[1,2-a]pyridine-2,6-diyl)dibenzonitrile], the pEC50 was more than 6.30.

`COc1ccc(-c2nc3ccc(-c4ccccc4)cn3c2CN2CCNC(=O)C2)cc1` [Example 30, 4-((2-(4-methoxyphenyl)-6-phenylimidazo[1,2-a]pyridin-3-yl)methyl)piperazin-2-one]: the pEC50 was less than 6.00.

For the compound `CN1CCCN(Cc2c(-c3ccc(Cl)cc3)nc3ccc(-c4ccccc4)cn23)CC1` [Example 31, 2-(4-chlorophenyl)-3-((4-methyl-1,4-diazepan-1-yl)methyl)-6-phenylimidazo[1,2-a]pyridine], the pEC50 is more than 6.30.

Turning to `CS(=O)(=O)c1ccc(-c2nc3ccc(-c4ccccc4)cn3c2CN2CCCNCC2)cc1` [Example 8, 3-((1,4-diazepan-1-yl)methyl)-2-(4-(methylsulfonyl)phenyl)-6-phenylimidazo[1,2-a]pyridine], the pEC50 is less than 6.00.

For `N#Cc1ccc(-c2nc3ccc(-c4ccccc4)cn3c2CN2CCCNCC2)s1` [Example 21, 5-(3-((1,4-diazepan-1-yl)methyl)-6-phenylimidazo[1,2-a]pyridin-2-yl)thiophene-2-carbonitrile], the pEC50 is more than 6.30.

Take `N#Cc1ccc(-c2nc3ccc(-c4cncnc4)cn3c2CN2CCCNCC2)cc1` [Example 26, 4-(3-((1,4-diazepan-1-yl)methyl)-6-(pyrimidin-5-yl)imidazo[1,2-a]pyridin-2-yl)benzonitrile]: the pEC50 is less than 6.00.
